ChEMBL document CHEMBL3885881, “DrugMatrix”

Species: Rattus norvegicus
Assay: DrugMatrix - Regimen: Daily Repeat
Assay type: toxicity, organism-based, Sprague-Dawley
Set-up: regimen Daily Repeat, gender Male, age 6-8 weeks
Details: in vivo, po, route oral GAVAGE, vehicle .5 % CMC; for ABSOLUTE BASOPHIL / ABSOLUTE EOSINOPHIL / ABSOLUTE LYMPHOCYTE / ABSOLUTE MONOCYTE / ABSOLUTE SEGMENTED NEUTROPHIL / BASOPHIL / EOSINOPHIL / ERYTHROCYTE COUNT / HEMATOCRIT / HEMOGLOBIN / LEUKOCYTE COUNT / LYMPHOCYTE / MEAN CORPUSCULAR HEMOGLOBIN / MEAN CORPUSCULAR HEMOGLOBIN CONCENTRATION / MEAN CORPUSCULAR VOLUME / MONOCYTE / NEUTROPHIL / NUCLEATED RED BLOOD CELLS / PLATELET COUNT: tissue Blood; for ALANINE AMINOTRANSFERASE / ALBUMIN / ALKALINE PHOSPHATASE / ASPARTATE AMINOTRANSFERASE / BLOOD UREA NITROGEN / CARBON DIOXIDE / CHLORIDE / CHOLESTEROL / CREATINE PHOSPHOKINASE / CREATININE / GLUCOSE / LACTATE DEHYDROGENASE / LIPASE / PHOSPHORUS / POTASSIUM / SODIUM / TOTAL BILIRUBIN / TOTAL PROTEIN / URIC ACID: tissue Plasma
[1] = 0 mg/kg, 72 h, dose level Control, time 3 day
[2] = 0 mg/kg, 120 h, dose level Control, time 5 day
[3] = 50 mg/kg, 72 h, dose level Low, time 3 day

Compound: CC1(C)[C@H]2CC[C@]1(C)C(=O)C2 [(-)-CAMPHOR]
- ABSOLUTE BASOPHIL [1]: 0 CELLS/uL
- ABSOLUTE EOSINOPHIL [1]: 222.83 CELLS/uL
- ABSOLUTE LYMPHOCYTE [1]: 14453 CELLS/uL
- ABSOLUTE MONOCYTE [1]: 0 CELLS/uL
- ABSOLUTE SEGMENTED NEUTROPHIL [1]: 1490.83 CELLS/uL
- BASOPHIL [1]: 0%
- EOSINOPHIL [1]: 1.33%
- ERYTHROCYTE COUNT [1]: 5.76 x10E6/uL
- HEMATOCRIT [1]: 36.52%
- HEMOGLOBIN [1]: 13.45 G/DL
- LEUKOCYTE COUNT [1]: 16.17 x10E3/uL
- LYMPHOCYTE [1]: 89.33%
- MEAN CORPUSCULAR HEMOGLOBIN [1]: 23.37 pg
- MEAN CORPUSCULAR HEMOGLOBIN CONCENTRATION [1]: 36.85 G/DL
- MEAN CORPUSCULAR VOLUME [1]: 63.47 fL
- MONOCYTE [1]: 0%
- NEUTROPHIL [1]: 9.33%
- NUCLEATED RED BLOOD CELLS [1]: 0 /100WBC
- PLATELET COUNT [1]: 1239.5 x10E3/uL
- ALANINE AMINOTRANSFERASE [1]: 43.83 u/L
- ALBUMIN [1]: 4.27 G/DL
- ALKALINE PHOSPHATASE [1]: 398.83 u/L
- ASPARTATE AMINOTRANSFERASE [1]: 81.17 u/L
- BLOOD UREA NITROGEN [1]: 17.67 mg/dL
- CARBON DIOXIDE [1]: 27.5 mmol/L
- CHLORIDE [1]: 99.17 MEQ/L
- CHOLESTEROL [1]: 74 mg/dL
- CREATINE PHOSPHOKINASE [1]: 331.5 u/L
- CREATININE [1]: 0.2 mg/dL
- GLUCOSE [1]: 171.33 mg/dL
- LACTATE DEHYDROGENASE [1]: 241.67 u/L
- LIPASE [1]: 9.5 u/L
- PHOSPHORUS [1]: 12.25 mg/dL
- POTASSIUM [1]: 6.33 MEQ/L
- SODIUM [1]: 141.28 MEQ/L
- TOTAL BILIRUBIN [1]: 0.15 mg/dL
- TOTAL PROTEIN [1]: 5.98 G/DL
- URIC ACID [1]: 1.63 mg/dL
- ABSOLUTE BASOPHIL [2]: 0 CELLS/uL
- ABSOLUTE EOSINOPHIL [2]: 148.67 CELLS/uL
- ABSOLUTE LYMPHOCYTE [2]: 16020.5 CELLS/uL
- ABSOLUTE MONOCYTE [2]: 29.17 CELLS/uL
- ABSOLUTE SEGMENTED NEUTROPHIL [2]: 1468.33 CELLS/uL
- BASOPHIL [2]: 0%
- EOSINOPHIL [2]: 1%
- ERYTHROCYTE COUNT [2]: 5.78 x10E6/uL
- HEMATOCRIT [2]: 35.77%
- HEMOGLOBIN [2]: 13.4 G/DL
- LEUKOCYTE COUNT [2]: 17.67 x10E3/uL
- LYMPHOCYTE [2]: 90.5%
- MEAN CORPUSCULAR HEMOGLOBIN [2]: 23.22 pg
- MEAN CORPUSCULAR HEMOGLOBIN CONCENTRATION [2]: 37.47 G/DL
- MEAN CORPUSCULAR VOLUME [2]: 61.92 fL
- MONOCYTE [2]: 0.17%
- NEUTROPHIL [2]: 8.33%
- NUCLEATED RED BLOOD CELLS [2]: 0.17 /100WBC
- PLATELET COUNT [2]: 1255.5 x10E3/uL
- ALANINE AMINOTRANSFERASE [2]: 46.5 u/L
- ALBUMIN [2]: 4.38 G/DL
- ALKALINE PHOSPHATASE [2]: 336 u/L
- ASPARTATE AMINOTRANSFERASE [2]: 76.5 u/L
- BLOOD UREA NITROGEN [2]: 20 mg/dL
- CARBON DIOXIDE [2]: 27.5 mmol/L
- CHLORIDE [2]: 101 MEQ/L
- CHOLESTEROL [2]: 71.33 mg/dL
- CREATINE PHOSPHOKINASE [2]: 231.83 u/L
- CREATININE [2]: 0.37 mg/dL
- GLUCOSE [2]: 168.83 mg/dL
- LACTATE DEHYDROGENASE [2]: 174 u/L
- LIPASE [2]: 8.67 u/L
- PHOSPHORUS [2]: 11.48 mg/dL
- POTASSIUM [2]: 6.82 MEQ/L
- SODIUM [2]: 143.8 MEQ/L
- TOTAL BILIRUBIN [2]: 0.2 mg/dL
- TOTAL PROTEIN [2]: 5.98 G/DL
- URIC ACID [2]: 1.83 mg/dL
- ABSOLUTE BASOPHIL [3]: 0 CELLS/uL
- ABSOLUTE EOSINOPHIL [3]: 203.67 CELLS/uL
- ABSOLUTE LYMPHOCYTE [3]: 12113.67 CELLS/uL
- ABSOLUTE MONOCYTE [3]: 0 CELLS/uL
- ABSOLUTE SEGMENTED NEUTROPHIL [3]: 916 CELLS/uL
- BASOPHIL [3]: 0%
- EOSINOPHIL [3]: 1.33%
- ERYTHROCYTE COUNT [3]: 5.4 x10E6/uL
- HEMATOCRIT [3]: 33.83%
- HEMOGLOBIN [3]: 12.8 G/DL
- LEUKOCYTE COUNT [3]: 13.23 x10E3/uL
- LYMPHOCYTE [3]: 91.33%
- MEAN CORPUSCULAR HEMOGLOBIN [3]: 23.7 pg
- MEAN CORPUSCULAR HEMOGLOBIN CONCENTRATION [3]: 37.87 G/DL
- MEAN CORPUSCULAR VOLUME [3]: 62.67 fL
- MONOCYTE [3]: 0%
- NEUTROPHIL [3]: 7.33%
- NUCLEATED RED BLOOD CELLS [3]: 0 /100WBC
- PLATELET COUNT [3]: 1197.67 x10E3/uL
- ALANINE AMINOTRANSFERASE [3]: 45.67 u/L
- ALBUMIN [3]: 4.13 G/DL
- ALKALINE PHOSPHATASE [3]: 348.67 u/L
- ASPARTATE AMINOTRANSFERASE [3]: 71.33 u/L
- BLOOD UREA NITROGEN [3]: 13.33 mg/dL
- CARBON DIOXIDE [3]: 28.67 mmol/L
- CHLORIDE [3]: 99.67 MEQ/L
- CHOLESTEROL [3]: 58 mg/dL
- CREATINE PHOSPHOKINASE [3]: 220.33 u/L
- CREATININE [3]: 0.19 mg/dL
- GLUCOSE [3]: 174.67 mg/dL
- LACTATE DEHYDROGENASE [3]: 227.67 u/L
- LIPASE [3]: 8 u/L
- PHOSPHORUS [3]: 12.33 mg/dL
- POTASSIUM [3]: 6.44 MEQ/L
- SODIUM [3]: 143.07 MEQ/L
- TOTAL BILIRUBIN [3]: 0.23 mg/dL
- TOTAL PROTEIN [3]: 5.67 G/DL
- URIC ACID [3]: 1.7 mg/dL
